Reference: US20240024287A1, “APPLICATION OF ANLE138B IN DRUG FOR IMPROVING DIET-INDUCED INSULIN RESISTANCE” (The First Affiliated Hospital of Shantou University Medical …, priority 2022, published 2024)
Where “and” joins values, the source holds several entries; their conditions need not be identical. Equal entries are not always repeated. Marks after values point to notes of the source that are not given here.

Columns and labels:
[1] = system: high-fat-induced rat insulin resistance models; test: High-fat-induced rat insulin resistance model, therapeutic administration; type: in vivo
Excerpt: (§1) 8-week-old male […] were selected as experimental animals. The rats were adaptively fed for 1 week after purchase, and then weighed for the fasting body weight. The healthy rats weighing 22-24 g were selected and randomly divided into groups according to the experimental flow design. (1) The rats were fed with normal feed and high-fructose feed for 8 weeks; (2) the rats were fed with high-fat feed for 12 weeks; (3) the rats were fed with high-fat feed for 8 weeks as a preventive experiment. Fasting body weights were measured and recorded regularly every week, and the rats were guaranteed to have free access to water and food during feeding. The food intake, water intake, and free movement of the model rats were continuously observed, and the rats with stunted growth, rough hair, and rickety posture after eating high-fructose and high-fat diets were screened out. In the experiment later, the rats were fed with normal feed or high-fructose/high-fat feed during the 2 weeks of intraperitoneal injection to ensure the consistency before and after administration.
(§2) A total energy-to-mass ratio was 4.73 kcal/g. The feed was provided by Beijing Huafukang Biotechnology Co., Ltd.
(§3) Anle138b solutions: The drug doses required for 1 week of intervention for each group of rats were calculated, Anle138b drug concentrations of 1 mg/kg (0.01%), 3 mg/kg (0.03%) and 5 mg/kg (0.05%) were prepared, Anle138b powder was weighed and then added in 10% DMSO, 40% PEG300, 5% Tween-80 and 45% saline in sequence, each mixture was evenly blended by vortex into a clear solution, and each Anle138b solution was separately bottled according to the daily dose and stored in a refrigerator at 4° C.
(§4) The 8-week-old adult rats were modeled by changing the diets after 1 week of adaptive feeding. Blood was collected from the right orbital venous plexus with a glass tube at 8 weeks and 12 weeks after model establishment and after fasting (>12 h), and blood glucose levels were measured with a blood glucose tester (Sannuo GA-3); and the insulin resistance mode was judged by the subsequent determination of metabolic indexes, such as glucose tolerance test by intraperitoneal injection, fasting serum insulin (enzyme-linked immunosorbent assay, Raybiotech), serum triglyceride (GPO-PAP single-reagent microplate method, Nanjing Jiancheng) and cholesterol ([…] single-reagent microplate method, Nanjing Jiancheng).
The rat IR models were randomly divided into two groups, the rats were administrated with Anle138b 3 mg/kg (n=6, 0.03%) and 5 mg/kg (n=6, 0.05%) for 2 weeks continuously, once a day.
After the models were determined to be successful, the average value of food intake of each rat in the first two days was taken as its own food intake base. After the drug intervention, the daily food intake and body weight were measured and compared with their own bases for comparison of the standardized food intake and body weight of each rat. […]

[2] = system: high-fat-induced rat insulin resistance models; test: Anle138b treatment versus paired-feed (PF) group in high-fat rat insulin resistance models; type: in vivo; conditions: high-fat model, 5 mg/kg, compared with PF group
Description: The rats fed with high-fat diet for 8 weeks were divided into paired-feed group (n=7) (the food intake was the same as that of high-fat Anle138b 5 mg/kg/d) and control group continuously fed with high-fat diet.
Pair-feed (PF) group: the pair-feed group was set according to the daily food intake in the high-fat group after intervention with Anle138b 5 mg/kg, the rats were given the same amount of high-fat diet every day, and the changes in the body weight and the metabolic indexes were measured.

[3] = system: high-fat-induced rat insulin resistance model; test: High-fat-induced rat insulin resistance model, preventive administration; type: in vivo, C57BL/6J rats; conditions: high-fat diet, preventive 5 mg/kg
Excerpt: as §1, §2, §3, §4
Rats fed with high-fat diet for 5 weeks were randomly divided into high-fat feeding control group (n=6) and drug intervention group with Anle138b 5 mg/kg, and the rats were administered for 3 weeks continuously, once every two days.

normal rats = test: Normal rats given Anle138b (normal drug / drug control group); type: in vivo; conditions: 3 mg/kg i.p., 2 weeks
Excerpt: as §1, §3, §4
(1) The normal rats were randomly divided into two groups: blank control group (n=6) and drug control group (n=7); the rats in the normal control group were intraperitoneally injected with a similar volume of solvent and Anle138b (3 mg/kg, 0.03%) according to the body weight for 2 weeks.

[4] = system: high-fructose-induced rat insulin resistance models; test: High-fructose-induced rat insulin resistance model, therapeutic administration; type: in vivo
Excerpt: as §1, §3
L-THP solution: The drug dose required for 1 week of intervention for each group of rats was calculated, L-THP drug concentrations of 3 mg/kg (0.03%) was prepared, light yellow L-THP powder was weighed and then added in 10% DMSO, 40% PEG300, 5% Tween-80 and 45% saline in sequence, each mixture was evenly blended by vortex into a clear solution, and each Anle138b solution was separately bottled according to the daily dosage and stored in a refrigerator at 4° C.
as §4
The rats were fed with 60% high-fructose diet for 8 weeks to establish insulin resistance models, and the rats fed with normal diet provided by the animal room of Shantou University Medical College were used as controls. After fasting, orbital blood was collected, and fasting blood glucose, serum insulin, glucose tolerance were determined to judge whether the modeling was successful. According to an insulin resistance index (HOMA-IR) as the core judgment index, the successfully modeled rats were enrolled by screening the IR index of >3 and randomly divided into groups to explore the influence of different concentrations of Anle138b on the rat insulin resistance models. The concentration gradients for different groups were 0 mg/kg (injection solvent, namely the model control group), 1 mg/kg, 3 mg/kg and 5 mg/kg clear Anle138b solution, as well as the L-THP 3 mg/kg positive drug control group. The rats were administrated by intraperitoneal injection for 2 weeks continuously, once a day.
The insulin resistance value was calculated in combination with the method for calculating the insulin resistance index (HOMA-IR) in the homeostasis model assessment method. […]

[5] = 3 mg/kg/d, 2 weeks, 3 mg/kg/day
[6] = 5 mg/kg/d, 2 weeks, 5 mg/kg/day
[7] = 2 weeks, with increase of drug concentration
[8] = 1 mg/kg i.p. once a day, 2 weeks
[9] = 3 mg/kg i.p. once a day, 2 weeks
[10] = 5 mg/kg i.p. once a day, 2 weeks

Question: What does the source list for `Brc1cccc(-c2cc(-c3ccc4c(c3)OCO4)[nH]n2)c1` [Anle138b]?
Answer: Fat weight index ([1]; 3 mg/kg): 0.01317±0.004212; Feeding efficiency (daily body weight change/energy consumption) ([1]; 3 mg/kg): −0.007788±0.01949 g/calories/rat/day; Glucose tolerance test area under curve (AUC) ([1]; 3 mg/kg): 1,203±155.6 min*mmol/L; Liver weight index ([1]; 3 mg/kg): 0.04475±0.003; Liver pathomorphism, HE staining ([1]; 3 mg/kg and 5 mg/kg): the hepatic steatosis was significantly alleviated; Pancreas pathomorphism, HE staining ([1]; 3 mg/kg and 5 mg/kg, as the dose increases): the acinar steatosis was significantly alleviated; Average daily food intake ([1]; 3 mg/kg once a day, 2 weeks): 1.946 ± 0.4777 g/day; Body weight after intervention ([1]; 3 mg/kg once a day, 2 weeks): 28.97 ± 1.657 g; Fasting Blood Glucose [1, 5]: 5.283 ± 0.74 mmol/L; Fasting Insulin [1, 5]: 55.24±28.94 μIU/mL; Insulin Resistance Index [1, 5]: 11.6±5.044 μIU/mL*mmol/L and 11.6 ± 5.04 μIU/mL*mmol/L; Triglyceride [1, 5]: 0.5138 ± 0.06 mmol/L; Fat weight index ([1]; 5 mg/kg): decreased; Feeding efficiency (daily body weight change/energy consumption) ([1]; 5 mg/kg): −0.01528±0.01287 g/calories/rat/day; Glucose tolerance test area under curve (AUC) ([1]; 5 mg/kg): 1,059±153.2 min*mmol/L; Liver weight index ([1]; 5 mg/kg): 0.04344±0.0026; Body weight after intervention ([1]; 5 mg/kg once a day, 2 weeks): 28.9 ± 1.685 g; Average daily food intake ([1]; 5 mg/kg once a day, 2 weeks, P<0.001): significantly lower than that of the model group; Fasting Blood Glucose [1, 6]: 4.867 ± 0.36 mmol/L; Fasting Insulin [1, 6]: 36.27±16.53 μIU/mL; Insulin Resistance Index [1, 6]: 8.446±3.617 μIU/mL*mmol/L and 8.446 ± 3.62 μIU/mL*mmol/L; Triglyceride [1, 6]: 0.5164 ± 0.06 mmol/L; Epididymal adipose tissue pathomorphism, HE staining [1, 7]: the adipocytes were reduced in sizes and arranged regularly; Skeletal muscle pathomorphism, HE staining ([1]; drug intervention 2 weeks): the intermuscular steatosis was relieved; Average body weight [2]: 28.23 ± 0.66 g; Fasting Blood Glucose [2]: 4.87 ± 0.36 mmol/L; Feeding efficiency [2]: −0.015±0.013; Triglyceride [2]: 0.52 ± 0.06 mmol/L; Adipose tissue pathomorphism, HE staining [3]: relieved the structural disorder of the adipose tissue; Daily feeding efficiency [3]: −0.03518±0.02726; Fasting Blood Glucose [3]: 6.313 ± 0.63 mmol/L; Fasting Insulin [3]: 22.09±6.49 μIU/mL; Fat weight index [3]: 0.01195±0.003; Glucose tolerance test area under curve (AUC) [3]: 1,269±74 min*mmol/L; Insulin Resistance Index [3]: 6.880±2.73 μIU/mL*mmol/L; Liver weight index [3]: 0.03763±0.001; Pancreas pathomorphism, HE staining [3]: significantly inhibit the steatosis of pancreatic acinar cells; Total Cholesterol [3]: 3.383 ± 0.21 mmol/L; Triglyceride [3]: 0.4687 ± 0.05 mmol/L; Body weight at end point of prevention experiment ([3]; 3 weeks, once every two days): 25.8 ± 0.67 g; Food intake ([3]; 3 weeks, once every two days): 1.805±0.19 g/rat; Body Weight After Administration (normal rats): 25.65 ± 0.7842 g; Fasting Blood Glucose (normal rats): 3.650 ± 0.33 mmol/L; Fasting Insulin (normal rats; 3 mg/kg): 15.08±13.14 μIU/mL; HOMA-IR (normal rats; 3 mg/kg): 1.1689±1.153 μIU/mL*mmol/L and 1.1689 ± 1.15 μIU/mL*mmol/L; Body Weight After Administration [4, 8]: 25.58 ± 1.555* * g; Fasting Blood Glucose [4, 8]: 5.100 ± 0.65 # mmol/L; Fasting Insulin [4, 8]: 48.97 ± 1.38 μIU/mL; HOMA-IR [4, 8]: 11.3 ± 1.78 μIU/mL*mmol/L; Glucose tolerance test area under curve (AUC) ([4]; 1 mg/kg i.p., 2 weeks): 1,307±46.38 min*mmol/L; Right epididymal fat weight index (fat weight/fasting body weight) ([4]; 1 mg/kg i.p., 2 weeks): 0.008918±0.0003788; Body Weight After Administration [4, 9]: 25.51 ± 0.8009 g; Fasting Blood Glucose [4, 9]: 5.300 ± 0.89 mmol/L; Fasting Insulin [4, 9]: 21.46 ± 10.36 # μIU/mL; HOMA-IR [4, 9]: 5.438 ± +2.13 # μIU/mL*mmol/L; Right epididymal fat weight index (fat weight/fasting body weight) ([4]; 3 mg/kg i.p., 2 weeks): 0.007657±0.002366; Body Weight After Administration [4, 10]: 24.25 ± +2.652 g; Fasting Blood Glucose [4, 10]: 4.675 ± 0.95 # mmol/L; Fasting Insulin [4, 10]: 25.74 ± 12.24 # μIU/mL; HOMA-IR [4, 10]: 5.827 ± 3.78 # μIU/mL*mmol/L; Glucose tolerance test area under curve (AUC) ([4]; 5 mg/kg i.p., 2 weeks): 1,261±103.2 min*mmol/L; Right epididymal fat weight index (fat weight/fasting body weight) ([4]; 5 mg/kg i.p., 2 weeks): 0.007971±0.00142; Epididymal adipose tissue pathomorphism, HE staining [4, 7]: the adipocytes were reduced in sizes and arranged regularly; Liver pathomorphism, HE staining ([4]; different concentrations, dose-dependent): the hepatic steatosis was significantly alleviated

Question: Which results are given for `COc1cc2c(cc1OC)[C@@H]1Cc3ccc(OC)c(OC)c3CN1CC2` [L-THP, reference compound]?
Answer: Body Weight After Administration [4, 9]: 24.24 ± 1.255 g; Fasting Blood Glucose [4, 9]: 4.967 ± 0.39 # mmol/L; Fasting Insulin [4, 9]: 24.76 ± 9.70 # # μIU/mL; HOMA-IR [4, 9]: 6.029 ± 3.33 # μIU/mL*mmol/L; Right epididymal fat weight index (fat weight/fasting body weight) ([4]; 3 mg/kg i.p., 2 weeks): 0.00751±0.002279
